Source: patent US20240288449A1, “METHODS FOR DIAGNOSING A CANCER- OR ANTIBIOTICS-INDUCED DYSBIOSIS AND THEIR USE FOR IMPROVING CANCER TREATMENT BY IMMUNOTHERAPY” (INSTITUT GUSTAVE ROUSSY, priority 2021, published 2024)

Legend:
[1] = test system: MAdCAM-1 (Madcam1 gene expression); assay: Madcam1 gene and protein expression in gut tissues of mice (RT-PCR, IHC, flow cytometry, ELISA); format: in vivo, C57BL/6J mice; conditions: for Madcam1 gene expression in mesenteric lymph nodes (mLN) / Madcam1 gene expression in ileal LP: single antibiotic regimen, 7 days conditioning
Description: (§1) Antibiotic treatments. If not indicated otherwise, mice were treated with a broad spectrum antibiotic solution (ATB) containing ampicillin (1 mg/ml), streptomycin (5 mg/ml), and colistin (1 mg/ml) (Sigma-Aldrich) added to the sterile drinking water of mice. In experiments where single antibiotics were used the concentrations were ampicillin (1 mg/ml), streptomycin (5 mg/ml), colistin (1 mg/ml), erythromycin (1 mg/ml) or ciprofloxacin (0.1 mg/ml) respectively. Solutions and bottles were changed 2 times weekly. Antibiotic activity, in the experiments where the antibiotic mix was used, was confirmed by cultivating fecal pellets resuspended in BHI+15% glycerol at 0.1 g/ml on COS (Columbia Agar with 5% Sheep Blood) plates for 48 h at 37° C. in aerobic and anaerobic conditions weekly. Duration of ATB treatment was slightly different (7-14 days before aPD-1 treatment) based on the experimental settings and is indicated in results for each experiment. In brief, to compromise the efficacy of anti-PD-1 mAb, mice were treated with ATB for one to two weeks before tumor implantation and ATB was continued throughout the experiment or discontinued on the day of anti PD-1 treatment initiation as indicated in the individual experiment. In the context of fecal microbial transplantation experiments, mice received 3 days of ATB before undergoing fecal microbial transplantation the next day by oral gavage using animal feeding needles. In the TC-1 model, ATB treatment was started 3 days before tumor injection and discontinued one day before the first bacterial gavage.
Oral bacterial gavage with commensal species. Akkermansia muciniphila CSUR P2261, and A. indistinctus CSUR P723 were provided by the Institut hospitalo-universitaire Méditerranée Infection, Marseille, France. Enterococcus hirae 13144 isolates were originally isolated from spleens or mesenteric lymph nodes of SPF mice treated with CTX at Gustave Roussy Cancer Campus. A. muciniphila was grown on COS plates in an anaerobic atmosphere created using 3 anaerobic generators (Biomerieux) at 37° C. for at least 72 h. E. hirae 13144 were grown on 5% sheep blood enriched Columbia agar for 24 h at 37° C. in aerobic conditions. Colonization of ATB pre-treated or GF C57BL/6 mice was performed by oral gavage with 100 μl of suspension containing 1×10^8 bacteria. For bacterial gavage: suspensions of […] were obtained using a fluorescence spectrophotometer (Eppendorf) at an optical density of 600 nm in PBS. Five bacterial gavages were performed for each mouse, the first 24 h before the first injection of antiPD-1 mAb and subsequently four times on the same day as anti-PD-1 mAb injection. The efficacy of colonization with E. hirae 13144 was confirmed by culturing the feces 48 h post gavage. Fecal pellets were harvested and resuspended in BHI+15% glycerol at 0.1 g/ml. Serial dilutions of feces were plated onto 5% sheep blood enriched Columbia agar and incubated for 48 h at 37° C. in aerobic and anaerobic conditions. After 48 h, single colonies were isolated and Gram staining was performed. The identification of specific bacteria was accomplished using a Matrix-Assisted Laser Desorption/Ionisation Time of Flight (MALDI-TOF) mass spectrometer (Andromas, Beckman Coulter, France).
RNA extraction and rtPCR. Lysis and extraction protocols were identical for human and mouse samples. Tumor or intestinal samples were snap frozen in liquid nitrogen in RLT Plus buffer containing 0.1% beta mercaptoethanol. On the day of extraction samples were thawed at 4° C. and homogenized on a microtube homogenizer (Benchmark Scientific) in RNA free glass bead tubes (Dutscher). Total RNA extraction and genomic DNA removal were performed with the RNeasy Mini kit (Qiagen), following the manufacturer's recommendations. […]

[2] = test system: metastatic bladder cancer; assay: STRONG study, Durvalumab in pre-treated metastatic bladder cancer patients; format: in vivo, human; conditions: 79 patients, 1500 mg iv /4 weeks
Description: Finally, we sought to triplicate the predictive value of sMAdCAM-1 in a subcohort of a Phase 3a trial enrolling pre-treated metastatic bladder cancer patients to receive a fixed dose of 1500 mg of Durvalumab iv (anti-PD-L1 Abs)/4 weeks. In this STRONG study, 79 patients only were analyzed, with an overall median OS of 5.79 months, and a median PFS of 2.79 months. We selected the extreme of the STRONG cohort, 30 Elite patients (OS>6 months, PFS>5 months, PR+CR only) and rapid progressors (n=49, with OS<6 months and PFS<5 months and PD at the first CT scan). In this cohort, the MAdCAM-1 median (min,max) was 158.8 ng/ml (53.41, 244.36).

[3] = test system: RORγt+ Treg (Tr17) in MCA205 and 4T1 tumors; assay: Flow cytometry of tumor infiltrating lymphocytes and mLN (Tr17 subsets); format: in vivo, mice; conditions: oral gavage after ATB stop, s.c. MCA205, αPD-1-based therapy
Description: as §1, with “In the context of fecal microbial transplantation experiments, mice received 3 days of ATB before undergoing fecal microbial transplantation the next day by oral gavage using animal feeding needles. In the TC-1 model, ATB treatment was started 3 days before tumor injection and discontinued one day before the first bacterial gavage.” left out
Subcutaneous model of MCA-205 sarcoma, MC38 and RET melanoma. […] Tumor length and width was routinely monitored every 3 times per week by means of a caliper. […]

[4] = test system: metastatic clear cell renal cell carcinoma (RCC); assay: NIVOREN trial, second line anti-PD1 in renal cell carcinoma patients; format: in vivo, human
[5] = NIVOREN trial, N=729 RCC patients

CC1(C)S[C@@H]2[C@H](NC(=O)[C@H](N)c3ccccc3)C(=O)N2[C@H]1C(=O)O [ampicilline, ampicillin]
Madcam1 gene expression in mesenteric lymph nodes (mLN) ([1]; RT-PCR): downregulate

CC[C@H]1OC(=O)[C@H](C)[C@@H](O[C@H]2C[C@@](C)(OC)[C@@H](O)[C@H](C)O2)[C@H](C)[C@@H](O[C@@H]2O[C@H](C)C[C@H](N(C)C)[C@H]2O)[C@](C)(O)C[C@@H](C)C(=O)[C@H](C)[C@@H](O)[C@]1(C)O [erythromycin]
Madcam1 gene expression in mesenteric lymph nodes (mLN) ([1]; RT-PCR): downregulate

[H]/N=C(/N)N[C@H]1[C@H](O)[C@@H](O)[C@H](O[C@@H]2O[C@@H](C)[C@](O)(C=O)[C@H]2O[C@@H]2O[C@@H](CO)[C@H](O)[C@@H](O)[C@@H]2NC)[C@@H](N/C(N)=N\[H])[C@@H]1O [streptomycin]
Madcam1 gene expression in Peyers' patches (PP) ([1]; RT-PCR): downregulated | Madcam1 gene expression in ileal LP ([1]; RT-PCR): downregulated | Madcam1 gene expression in mesenteric lymph nodes (mLN) ([1]; RT-PCR): downregulated

CN[C@H](CC(C)C)C(=O)N[C@H]1C(=O)N[C@@H](CC(N)=O)C(=O)N[C@H]2C(=O)N[C@H]3C(=O)N[C@H](C(=O)N[C@H](C(=O)O)c4cc(O)cc(O)c4-c4cc3ccc4O)[C@H](O)c3ccc(c(Cl)c3)Oc3cc2cc(c3O[C@@H]2O[C@H](CO)[C@@H](O)[C@H](O)[C@H]2O[C@H]2C[C@](C)(N)[C@H](O)[C@H](C)O2)Oc2ccc(cc2Cl)[C@H]1O [vancomycin]
Madcam1 gene expression in ileal LP ([1]; RT-PCR): upregulated | Madcam1 gene expression in mesenteric lymph nodes (mLN) ([1]; RT-PCR): failed to downregulate

Durvalumab: anti-PD-L1 Abs
median PFS [2]: 2.79 months | overall median OS [2]: 5.79 months

Lactobacillus reuteri
Madcam1 ileal gene expression ([1]; oral supplementation of FMT recipients): could further influence | Tr17 recruitment promoted by PD1 inhibition [3]: failed to do so

Nivolumab: anti-PD1 mAb
complete responses [4, 5]: 1.2% | objective response rate [4, 5]: 20.8% | partial responses [4, 5]: 19.6% | progressive diseases (PD) [4, 5]: 79.2% | Best response: Partial response ([4]; Overall (n = 212) RCC patients): (7.1) % | Best response: Progressive disease ([4]; Overall (n = 212) RCC patients): (49.7) %
